PubChem BioAssay (NCI)
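Grown in 96-well plates, cells were treated for 48 hours with each compound at five concentrations. Insufficient inhibition: endpoint recorded as highest concentration tested. GI50 = concentration required for 50% inhibition of growth. At the TGI there is no net growth.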

Tests used:
Assay in all cases: NCI tumour cell line growth inhibition, 48 h
[1] = tested on: ACHN renal
[2] = tested on: SF-268 CNS
[3] = tested on: HCC-2998 colon
[4] = tested on: EKVX NSCLC
[5] = tested on: SNB-75 CNS
[6] = tested on: PC-3 prostate
[7] = tested on: T-47D breast
[8] = tested on: NCI/ADR-RES ovarian
[9] = tested on: NCI-H460 lung
[10] = tested on: HCT-116 colon
[11] = tested on: SF-539 CNS
[12] = tested on: MOLT-4 leukemia
[13] = tested on: MALME-3M melanoma
[14] = tested on: MDA-MB-231 breast
[15] = tested on: SNB-19 CNS
[16] = tested on: UO-31 renal
[17] = tested on: UACC-257 melanoma
[18] = tested on: 786-0 renal
[19] = tested on: HT29 colon
[20] = tested on: BT-549 breast
[21] = tested on: CAKI-1 renal
[22] = tested on: M14 melanoma
[23] = tested on: RXF 393 renal
[24] = tested on: TK-10 renal
[25] = tested on: SF-295 CNS
[26] = tested on: SW-620 colon
[27] = tested on: SR leukemia
[28] = tested on: LOX IMVI melanoma
[29] = tested on: CCRF-CEM leukemia
[30] = tested on: KM12 colon
[31] = tested on: MDA-MB-435
[32] = tested on: SK-MEL-28 melanoma
[33] = tested on: SK-MEL-2 melanoma
[34] = tested on: UACC-62 melanoma
[35] = tested on: SN12C renal
[36] = tested on: SK-OV-3 ovarian
[37] = tested on: A498 renal
[38] = tested on: U251 CNS
[39] = tested on: HS 578T breast
[40] = tested on: OVCAR-5 ovarian
[41] = tested on: HL-60(TB) leukemia
[42] = tested on: HCT-15 colon
[43] = tested on: DU-145 prostate
[44] = tested on: A549 NSCLC
[45] = tested on: OVCAR-8 ovarian
[46] = tested on: HOP-92 NSCLC
[47] = tested on: NCI-H522 lung
[48] = tested on: SK-MEL-5 melanoma
[49] = tested on: HOP-62 NSCLC
[50] = tested on: MCF7 breast
[51] = tested on: COLO 205 colon
[52] = tested on: OVCAR-3 ovarian
[53] = tested on: NCI-H226 lung
[54] = tested on: NCI-H23 lung
[55] = tested on: OVCAR-4 ovarian
[56] = tested on: K-562 leukemia
[57] = tested on: IGROV1 ovarian
[58] = tested on: RPMI-8226 leukemia

Q: `Cc1ncc(C(=O)Nc2ccc(CN3CCN(C)CC3)c(C(F)(F)F)c2)cc1C#Cc1ccc(N)nc1` was tested. Which GI50 [1] did it give?
A: Its GI50 is 117 nM.

Q: And the TGI [1]?
A: The TGI was 995 nM.

Q: What about the GI50 [2] of the same compound?
A: Its GI50 is 258 nM.

Q: And the TGI [2]?
A: Its TGI is 1430 nM.

Q: What about the GI50 [3] of the same compound?
A: The GI50 was 998 nM.

Q: And the TGI [3]?
A: Its TGI is 4660 nM.

Q: What about the GI50 [4] of the same compound?
A: Its GI50 is 504 nM.

Q: And the TGI [4]?
A: The TGI was 3850 nM.

Q: What about the GI50 [5] of the same compound?
A: The GI50 was 434 nM.

Q: And the TGI [5]?
A: Its TGI is 1100 nM.

Q: What about the GI50 [6] of the same compound?
A: Its GI50 is 720 nM.

Q: And the TGI [6]?
A: Its TGI is 5890 nM.

Q: What about the GI50 [7] of the same compound?
A: Its GI50 is 1080 nM.

Q: What about the TGI [7] of the same compound?
A: Its TGI is 7200 nM.

Q: And the GI50 [8]?
A: The GI50 was 1030 nM.

Q: What about the TGI [8] of the same compound?
A: The TGI was 5640 nM.

Q: What about the GI50 [9] of the same compound?
A: The GI50 was 190 nM.

Q: What about the TGI [9] of the same compound?
A: The TGI was 1840 nM.

Q: What about the GI50 [10] of the same compound?
A: The GI50 was 213 nM.

Q: And the TGI [10]?
A: The TGI was 1640 nM.

Q: What about the GI50 [11] of the same compound?
A: The GI50 was 367 nM.

Q: And the TGI [11]?
A: The TGI was 1100 nM.

Q: And the GI50 [12]?
A: Its GI50 is 155 nM.

Q: And the TGI [12]?
A: Its TGI is 7520 nM.

Q: And the GI50 [13]?
A: The GI50 was 86.8 nM.

Q: And the TGI [13]?
A: The TGI was 379 nM.

Q: And the GI50 [14]?
A: Its GI50 is 158 nM.

Q: And the TGI [14]?
A: The TGI was 711 nM.

Q: And the GI50 [15]?
A: The GI50 was 1220 nM.

Q: What about the TGI [15] of the same compound?
A: The TGI was 5060 nM.

Q: What about the GI50 [16] of the same compound?
A: Its GI50 is 161 nM.

Q: What about the TGI [16] of the same compound?
A: The TGI was 793 nM.

Q: What about the GI50 [17] of the same compound?
A: The GI50 was 582 nM.

Q: What about the TGI [17] of the same compound?
A: Its TGI is 3250 nM.

Q: What about the GI50 [18] of the same compound?
A: Its GI50 is 733 nM.

Q: What about the TGI [18] of the same compound?
A: The TGI was 4300 nM.

Q: What about the GI50 [19] of the same compound?
A: The GI50 was 129 nM.

Q: And the TGI [19]?
A: Its TGI is 1160 nM.

Q: What about the GI50 [20] of the same compound?
A: The GI50 was 1200 nM.

Q: What about the TGI [20] of the same compound?
A: Its TGI is 4090 nM.

Q: And the GI50 [21]?
A: Its GI50 is 104 nM.

Q: And the TGI [21]?
A: The TGI was 533 nM.

Q: What about the GI50 [22] of the same compound?
A: Its GI50 is 126 nM.

Q: What about the TGI [22] of the same compound?
A: The TGI was 797 nM.

Q: What about the GI50 [23] of the same compound?
A: Its GI50 is 197 nM.

Q: What about the TGI [23] of the same compound?
A: The TGI was 892 nM.

Q: What about the GI50 [24] of the same compound?
A: The GI50 was 654 nM.

Q: What about the TGI [24] of the same compound?
A: Its TGI is 4390 nM.

Q: And the GI50 [25]?
A: The GI50 was 908 nM.

Q: And the TGI [25]?
A: Its TGI is 4070 nM.

Q: What about the GI50 [26] of the same compound?
A: The GI50 was 244 nM.

Q: What about the TGI [26] of the same compound?
A: The TGI was 1360 nM.

Q: What about the GI50 [27] of the same compound?
A: Its GI50 is 189 nM.

Q: What about the TGI [27] of the same compound?
A: The TGI was 4400 nM.

Q: And the GI50 [28]?
A: Its GI50 is 131 nM.

Q: What about the TGI [28] of the same compound?
A: Its TGI is 496 nM.

Q: What about the GI50 [29] of the same compound?
A: Its GI50 is 598 nM.

Q: And the TGI [29]?
A: Its TGI is 12300 nM.

Q: And the GI50 [30]?
A: The GI50 was 13.5 nM.

Q: What about the TGI [30] of the same compound?
A: Its TGI is 1210 nM.

Q: And the GI50 [31]?
A: The GI50 was 155 nM.

Q: And the TGI [31]?
A: Its TGI is 789 nM.

Q: And the GI50 [32]?
A: Its GI50 is 251 nM.

Q: What about the TGI [32] of the same compound?
A: Its TGI is 1300 nM.

Q: What about the GI50 [33] of the same compound?
A: Its GI50 is 212 nM.

Q: What about the TGI [33] of the same compound?
A: The TGI was 816 nM.

Q: And the GI50 [34]?
A: The GI50 was 153 nM.

Q: And the TGI [34]?
A: The TGI was 854 nM.

Q: What about the GI50 [35] of the same compound?
A: The GI50 was 135 nM.

Q: What about the TGI [35] of the same compound?
A: The TGI was 2250 nM.

Q: What about the GI50 [36] of the same compound?
A: Its GI50 is 395 nM.

Q: What about the TGI [36] of the same compound?
A: Its TGI is 2560 nM.

Q: And the GI50 [37]?
A: The GI50 was 89.8 nM.

Q: And the TGI [37]?
A: Its TGI is 294 nM.

Q: And the GI50 [38]?
A: Its GI50 is 483 nM.

Q: What about the TGI [38] of the same compound?
A: The TGI was 4950 nM.

Q: And the GI50 [39]?
A: Its GI50 is 170 nM.

Q: And the TGI [39]?
A: The TGI was 988 nM.

Q: What about the GI50 [40] of the same compound?
A: Its GI50 is 412 nM.

Q: And the TGI [40]?
A: Its TGI is 5300 nM.

Q: What about the GI50 [41] of the same compound?
A: The GI50 was 290 nM.

Q: What about the TGI [41] of the same compound?
A: Its TGI is 1910 nM.

Q: What about the GI50 [42] of the same compound?
A: Its GI50 is 224 nM.

Q: And the TGI [42]?
A: Its TGI is 3700 nM.

Q: What about the GI50 [43] of the same compound?
A: Its GI50 is 186 nM.

Q: What about the TGI [43] of the same compound?
A: Its TGI is 4120 nM.

Q: And the GI50 [44]?
A: The GI50 was 531 nM.

Q: What about the TGI [44] of the same compound?
A: Its TGI is 4410 nM.

Q: And the GI50 [45]?
A: Its GI50 is 489 nM.

Q: What about the TGI [45] of the same compound?
A: Its TGI is 5030 nM.

Q: What about the GI50 [46] of the same compound?
A: Its GI50 is 116 nM.

Q: And the TGI [46]?
A: The TGI was 935 nM.

Q: What about the GI50 [47] of the same compound?
A: The GI50 was 192 nM.

Q: And the TGI [47]?
A: The TGI was 1750 nM.

Q: And the GI50 [48]?
A: Its GI50 is 532 nM.

Q: And the TGI [48]?
A: The TGI was 1000 nM.

Q: What about the GI50 [49] of the same compound?
A: Its GI50 is 426 nM.

Q: And the TGI [49]?
A: Its TGI is 2600 nM.

Q: What about the GI50 [50] of the same compound?
A: The GI50 was 903 nM.

Q: What about the TGI [50] of the same compound?
A: Its TGI is 4890 nM.

Q: What about the GI50 [51] of the same compound?
A: The GI50 was 239 nM.

Q: What about the TGI [51] of the same compound?
A: Its TGI is 4550 nM.

Q: And the GI50 [52]?
A: Its GI50 is 556 nM.

Q: And the TGI [52]?
A: The TGI was 4160 nM.

Q: What about the GI50 [53] of the same compound?
A: Its GI50 is 206 nM.

Q: What about the TGI [53] of the same compound?
A: The TGI was 1660 nM.

Q: What about the GI50 [54] of the same compound?
A: Its GI50 is 600 nM.

Q: What about the TGI [54] of the same compound?
A: The TGI was 4130 nM.

Q: What about the GI50 [55] of the same compound?
A: The GI50 was 122 nM.

Q: And the TGI [55]?
A: The TGI was 3740 nM.

Q: And the GI50 [56]?
A: The GI50 was 3.33 nM.

Q: What about the TGI [56] of the same compound?
A: Its TGI is 24500 nM.

Q: What about the GI50 [57] of the same compound?
A: The GI50 was 118 nM.

Q: And the TGI [57]?
A: Its TGI is 751 nM.

Q: What about the GI50 [58] of the same compound?
A: Its GI50 is 237 nM.

Q: What about the TGI [58] of the same compound?
A: The TGI was 1580 nM.
